# The Kinase Knowledgebase extract (Sharma et al. 2016)
# Target: EGFR (UniProt P00533)
# Assay: Inhibition of EGFR Kinase Activity
# EGFR, sequence (P00533 whole entry, looked up): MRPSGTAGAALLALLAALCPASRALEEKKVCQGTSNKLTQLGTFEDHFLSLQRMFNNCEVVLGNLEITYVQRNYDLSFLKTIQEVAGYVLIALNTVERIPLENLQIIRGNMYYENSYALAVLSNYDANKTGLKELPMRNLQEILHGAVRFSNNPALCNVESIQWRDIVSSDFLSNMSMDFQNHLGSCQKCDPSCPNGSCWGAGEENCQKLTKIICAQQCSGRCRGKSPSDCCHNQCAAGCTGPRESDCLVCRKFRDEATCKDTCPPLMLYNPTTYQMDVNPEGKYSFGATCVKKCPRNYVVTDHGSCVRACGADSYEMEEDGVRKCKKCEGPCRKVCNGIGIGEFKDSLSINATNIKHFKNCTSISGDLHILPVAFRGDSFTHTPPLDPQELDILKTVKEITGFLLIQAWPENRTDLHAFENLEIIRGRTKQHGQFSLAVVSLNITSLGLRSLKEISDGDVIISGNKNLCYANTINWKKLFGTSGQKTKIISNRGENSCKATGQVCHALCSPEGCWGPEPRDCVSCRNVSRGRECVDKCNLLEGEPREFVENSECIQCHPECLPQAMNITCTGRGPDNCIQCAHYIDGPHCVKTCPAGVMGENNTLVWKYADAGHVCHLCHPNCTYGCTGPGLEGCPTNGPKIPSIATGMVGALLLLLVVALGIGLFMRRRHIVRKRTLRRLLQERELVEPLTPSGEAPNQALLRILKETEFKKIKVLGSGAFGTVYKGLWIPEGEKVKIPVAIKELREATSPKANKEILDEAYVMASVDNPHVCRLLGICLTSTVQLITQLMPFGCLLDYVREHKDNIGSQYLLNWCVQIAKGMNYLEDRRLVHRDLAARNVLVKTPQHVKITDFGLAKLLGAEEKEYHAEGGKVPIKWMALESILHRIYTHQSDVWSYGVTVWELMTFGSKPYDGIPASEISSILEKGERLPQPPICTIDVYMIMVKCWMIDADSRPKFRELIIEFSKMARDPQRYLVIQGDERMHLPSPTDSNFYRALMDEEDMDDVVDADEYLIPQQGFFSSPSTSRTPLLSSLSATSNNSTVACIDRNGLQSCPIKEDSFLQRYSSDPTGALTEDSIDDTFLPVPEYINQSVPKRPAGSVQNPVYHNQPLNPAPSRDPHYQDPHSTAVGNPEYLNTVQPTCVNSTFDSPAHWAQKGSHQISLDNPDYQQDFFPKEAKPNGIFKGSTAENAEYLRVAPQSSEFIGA
row,IC50 [µM],Compound
1,< 50,CC#CC(=O)Nc1cc(Nc2ncnc(N(C)c3ccc(OCc4ccccc4)c(Cl)c3)n2)ccc1OCCCC1CCN(C)CC1
2,< 50,C=CCN(c1ccc(OCCC)c(OCCC)c1)c1ncnc(Nc2cccc(NC(=O)C=C)c2)n1
3,< 50,CC#CC(=O)Nc1cccc(Nc2ncnc(Nc3cccc(CC(=O)OC)c3)n2)c1
4,< 50,C=CC(=O)Nc1ccc(Nc2ncnc(Nc3ccc(OCc4ccccc4)cc3)n2)cc1
5,< 50,C=CC(=O)Nc1cccc(Nc2ncnc(Nc3cc(Cl)cc4ccccc34)n2)c1
6,< 50,C=CC(=O)N(CCCN1CCOCC1)c1cccc(Nc2ncnc(N(C)c3ccc4c(cnn4Cc4ccccc4)c3)n2)c1
7,< 50,CC#CC(=O)Nc1cccc(Nc2ncnc(N(CC)c3ccc(OCc4ccccc4)cc3)n2)c1
8,< 50,C=CC(=O)Nc1ccc(Nc2ncnc(N(CC)n3c(=O)n(C(=O)C(C)(C)C)c4ccccc43)n2)cc1
9,< 50,C#CCC(=O)Nc1cccc(Nc2ncnc(NN3CCCc4cc(C)ccc43)n2)c1
10,< 50,C=CC(=O)Nc1cccc(Nc2ncnc(Nc3ccc(OC)c(OC)c3)n2)c1
11,< 50,C=CCN(c1cccc(CC(=O)OC)c1)c1ncnc(Nc2cccc(NC(=O)C#CC)c2)n1
12,< 50,C=CC(=O)N1CCc2cc(Nc3ncnc(Nc4ccc5c(cnn5Cc5ccccc5)c4)n3)ccc21
13,< 50,C=CCN(c1ncnc(Nc2cccc(NC(=O)C=C)c2)n1)n1c(=O)[nH]c2ccccc21
14,< 50,C=CC(=O)Nc1ccc(Nc2ncnc(N(C)c3ccc(F)c(Cl)c3)n2)cc1

# The remaining lines, values behind:
row,Compound,IC50 [µM]
1,CC#CC(=O)Nc1cccc(Nc2ncnc(N(C)c3cc(Cl)cc4ccccc34)n2)c1,< 50
2,C=CCN(c1ncnc(Nc2ccc(NC(=O)C=C)cc2)n1)C1CC1c1ccc(Cl)cc1 (stereo unspecified),< 50
3,C=CC(=O)Nc1ccc(Nc2ncnc(NN3CCCc4cc(C)ccc43)n2)cc1,< 50
4,C=CC(=O)Nc1cccc(Nc2ncnc(N(C)C3CC3c3ccc(Cl)cc3)n2)c1 (stereo unspecified),< 50
5,C=CC(=O)Nc1cccc(Nc2ncnc(Nc3ccc(OCCOC)c(OC)c3)n2)c1,< 50
6,C=CC(=O)Nc1cc(Nc2ncnc(N(C)c3ccc(OCc4ccccc4)c(Cl)c3)n2)ccc1OCCCN1CCOCC1,< 50
7,C=CC(=O)Nc1ccc(Nc2ncnc(NN3CCCc4cc(OC)ccc43)n2)cc1,< 50
8,CC#CC(=O)Nc1cccc(Nc2ncnc(N(CC)c3ccc(C(=O)OC)cc3)n2)c1,< 50
9,C=CC(=O)Nc1cccc(Nc2ncnc(N(CC)c3ccc(OCCOC)c(OC)c3)n2)c1,< 50
10,C=CC(=O)Nc1ccc(Nc2ncnc(Nc3cccc4ccccc34)n2)cc1,< 50
11,CC#CC(=O)Nc1cccc(Nc2ncnc(N(CC)n3c(=O)[nH]c4ccccc43)n2)c1,< 50
12,C#CCC(=O)Nc1cccc(Nc2ncnc(NN3CCCc4cc(Cl)ccc43)n2)c1,< 50
13,CC#CC(=O)Nc1cccc(Nc2ncnc(N(CC)c3cc(Cl)ccc3C)n2)c1,< 50
14,C=CC(=O)Nc1cc(Nc2ncnc(Nc3ccc(OCc4ccccc4)c(Cl)c3)n2)ccc1OCCCN1CCOCC1,< 50
15,C=CCN(c1cccc(Cl)c1)c1ncnc(Nc2ccc(NC(=O)C=C)cc2)n1,< 50
16,CC#CC(=O)Nc1cc(Nc2ncnc(N(C)c3cccc(Cl)c3)n2)ccc1OCCCN1CCOCC1,< 50
17,C=CCN(c1cccc(C(N)=O)c1)c1ncnc(Nc2ccc(NC(=O)C=C)cc2)n1,< 50
18,C=CCN(c1ncnc(Nc2ccc(NC(=O)C=C)cc2)n1)n1c(=O)[nH]c2ccccc21,< 50
19,C=CC(=O)Nc1cccc(Nc2ncnc(N(CC)c3cccc(CC(=O)OC)c3)n2)c1,< 50
20,C=CCN(c1cc(OC)c(OC)c(OCCN2CCOCC2)c1)c1ncnc(Nc2cccc(NC(=O)C=C)c2)n1,< 50
21,C=CC(=O)Nc1ccc(Nc2ncnc(Nc3ccc4NN(=Cc4c3)Cc5ccccn5)n2)cc1,< 50
22,C=CCN(c1ncnc(Nc2cccc(NC(=O)C#CC)c2)n1)C1CC1c1ccccc1 (stereo unspecified),< 50
23,C=CCC(=O)Nc1cccc(Nc2ncnc(Nc3cccc(Cl)c3)n2)c1,< 50
24,CC#CC(=O)Nc1cccc(Nc2ncnc(N(CC)c3ccc(OC)c(OCCOC)c3)n2)c1,< 50
25,C=CC(=O)Nc1ccc(Nc2ncnc(N(C)c3ccc(OCc4ccccc4)c(Cl)c3)n2)cc1,< 50
26,C=CCN(c1ncnc(Nc2cccc(NC(=O)C=C)c2)n1)C1CC1c1ccccc1 (stereo unspecified),< 50
27,C=CCN(c1ccc2NN(=Cc2c1)Cc3ccccn3)c4ncnc(Nc5ccc(NC(=O)C=C)cc5)n4,< 50
